According to patent publication US20180140602A1, “COMBINATION OF CHIMERIC ANTIGEN RECEPTOR THERAPY AND AMINO PYRIMIDINE DERIVATIVES” (Novartis AG, priority 2015, published 2018):

Target: T1, BTK (Homo sapiens, UniProt Q06187)
T1 construct: Whole blood was collected with written consent from healthy volunteers by venipuncture into sodium heparin vials; endogenous in cells; host or cells: B cells in heparinised whole blood of healthy human volunteers
Assay: Inhibition of BTK activity in blood (anti-IgM/IL-4 B cell activation, CD69);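 also: heparinized blood from healthy donors, read by flow cytometry, with inhibition derived from the percentage of CD69-positive cells within the CD19-positive lymphocyte gate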
Type: cell-based
Conditions: human whole blood, anti-IgM/IL-4, CD69 on CD19+ cells, 20 hours

T1 sequence (Q06187 whole entry): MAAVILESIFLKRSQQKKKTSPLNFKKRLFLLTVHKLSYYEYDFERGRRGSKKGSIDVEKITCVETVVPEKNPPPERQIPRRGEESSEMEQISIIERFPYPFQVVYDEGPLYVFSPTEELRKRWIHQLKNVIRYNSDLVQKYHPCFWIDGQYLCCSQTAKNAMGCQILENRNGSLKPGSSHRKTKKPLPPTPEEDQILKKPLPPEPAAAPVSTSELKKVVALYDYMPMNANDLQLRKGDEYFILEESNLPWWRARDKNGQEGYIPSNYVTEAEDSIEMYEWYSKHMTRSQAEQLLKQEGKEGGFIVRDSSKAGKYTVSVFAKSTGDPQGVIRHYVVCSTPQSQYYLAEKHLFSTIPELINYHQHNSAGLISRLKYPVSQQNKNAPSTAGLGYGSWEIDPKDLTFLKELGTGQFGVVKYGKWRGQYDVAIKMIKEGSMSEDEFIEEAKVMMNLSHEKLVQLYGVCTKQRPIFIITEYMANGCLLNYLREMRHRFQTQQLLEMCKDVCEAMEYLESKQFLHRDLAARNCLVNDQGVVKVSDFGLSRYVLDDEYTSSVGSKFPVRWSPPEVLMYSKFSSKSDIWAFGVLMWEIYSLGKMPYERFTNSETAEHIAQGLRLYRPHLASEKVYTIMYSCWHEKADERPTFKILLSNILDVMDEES

IC50	SMILES
134 nM	C=CC(=O)N1C[C@@H](OC)C[C@H]1COc1c(N)ncnc1-c1cc(F)cc(NC(=O)c2ccc(C3CC3)cc2F)c1C [Example 29, N-(3-(5-(((2S,4S)-1-Acryloyl-4-methoxypyrrolidin-2-yl)methoxy)-6-aminopyrimidin-4-yl)-5-fluoro-2-methylphenyl)-4-cyclopropyl-2-fluorobenzamide]
376 nM	CC#CC(=O)N1CC(Oc2c(N)ncnc2-c2cc(F)cc(NC(=O)c3ccc(C4CC4)cc3F)c2C)C1 [Example 4, N-(3-(6-Amino-5-((1-(but-2-ynoyl)azetidin-3-yl)oxy)pyrimidin-4-yl)-5-fluoro-2-methylphenyl)-4-cyclopropyl-2-fluorobenzamide]
65 nM	C=CC(=O)N(C)CCOc1c(N)ncnc1-c1cc(F)cc(N2CCc3cc(C4CC4)ccc3C2=O)c1CO [Example 25, N-(2-((4-Amino-6-(3-(6-cyclopropyl-1-oxo-3,4-dihydroisoquinolin-2(1H)-yl)-5-fluoro-2-(hydroxymethyl)phenyl)pyrimidin-5-yl)oxy)ethyl)-N-methylacrylamide]
72 nM	C=CC(=O)N1CC[C@H]1COc1c(N)ncnc1-c1cc(F)cc(N2CCc3cc(C4CC4)ccc3C2=O)c1CO [Example 35, (S)-2-(3-(5-((1-Acryloylazetidin-2-yl)methoxy)-6-aminopyrimidin-4-yl)-5-fluoro-2-(hydroxymethyl)phenyl)-6-cyclopropyl-3,4-dihydroisoquinolin-1(2H)-one]
70 nM	C=CC(=O)N1CC[C@H](OC)[C@H]1COc1c(N)ncnc1-c1cc(F)cc(NC(=O)c2ccc(C3CC3)cc2F)c1C [Example 38, N-(3-(5-(((2R,3S)-1-Acryloyl-3-methoxypyrrolidin-2-yl)methoxy)-6-aminopyrimidin-4-yl)-5-fluoro-2-methylphenyl)-4-cyclopropyl-2-fluorobenzamide]
246 nM	C=CC(=O)N[C@@H](C)COc1c(N)ncnc1-c1cc(F)cc(NC(=O)c2ccc(C3CC3)cc2F)c1C [Example 17, (S)—N-(3-(5-(2-Acrylamidopropoxy)-6-aminopyrimidin-4-yl)-5-fluoro-2-methylphenyl)-4-cyclopropyl-2-fluorobenzamide]
136 nM	C=CC(=O)N(C)[C@@H](C)COc1c(N)ncnc1-c1cc(F)cc(NC(=O)c2ccc(C3CC3)cc2F)c1C [Example 19, (S)—N-(3-(6-Amino-5-(2-(N-methylacrylamido)propoxy)pyrimidin-4-yl)-5-fluoro-2-methylphenyl)-4-cyclopropyl-2-fluorobenzamide]
29 nM	C=CC(=O)N(CCF)CCOc1c(N)ncnc1-c1cc(F)cc(NC(=O)c2ccc(C3CC3)cc2F)c1C [Example 15, N-(3-(6-Amino-5-(2-(N-(2-fluoroethyl)acrylamido)ethoxy)pyrimidin-4-yl)-5-fluoro-2-methylphenyl)-4-cyclopropyl-2-fluorobenzamide]
51 nM	C=CC(=O)N1C[C@H](OC)C[C@H]1COc1c(N)ncnc1-c1cc(F)cc(NC(=O)c2ccc(C3CC3)cc2F)c1C [Example 26, N-(3-(5-(((2S,4R)-1-Acryloyl-4-methoxypyrrolidin-2-yl)methoxy)-6-aminopyrimidin-4-yl)-5-fluoro-2-methylphenyl)-4-cyclopropyl-2-fluorobenzamide]
323 nM	Cc1c(NC(=O)c2ccc(C3CC3)cc2F)cc(F)cc1-c1ncnc(N)c1OCCN(C)C(=O)C1CO1 (stereo not drawn) [Example 11, N-(2-((4-Amino-6-(3-(4-cyclopropyl-2-fluorobenzamido)-5-fluoro-2-methylphenyl)pyrimidin-5-yl)oxy)ethyl)-N-methyloxirane-2-carboxamide]
208 nM	C#CC(=O)N1CC[C@H]1COc1c(N)ncnc1-c1cc(F)cc(NC(=O)c2ccc(C3CC3)cc2F)c1C [Example 34]
25 nM	C=CC(=O)N1C[C@H](F)C[C@H]1COc1c(N)ncnc1-c1cc(F)cc(NC(=O)c2ccc(C3CC3)cc2F)c1C [Example 31, N-(3-(5-(((2S,4R)-1-Acryloyl-4-fluoropyrrolidin-2-yl)methoxy)-6-aminopyrimidin-4-yl)-5-fluoro-2-methylphenyl)-4-cyclopropyl-2-fluorobenzamide]
